Measured values taken from patent publication US12281123B2, “Benzoxazinone compounds as KLK5/7 dual inhibitors” (MOLECULAR SKIN THERAPEUTICS, INC., priority 2019, dated 2025).
Several values for one entry are separate records, joined by “and”; a condition that tells them apart may be missing. Equal values may be shown once. Read-outs that look alike come from different tables or passages of the source.

Assays:
Assay type in all cases: biochemical
Trypsin = target: T1, Trypsin (UniProt P00760); experiment: Chromogenic assay, trypsin; conditions: Trypsin 0.1 nM; S-2288 500 μM; highest conc. of 1.001 50 μM
T1 sequence (P00760 1-246): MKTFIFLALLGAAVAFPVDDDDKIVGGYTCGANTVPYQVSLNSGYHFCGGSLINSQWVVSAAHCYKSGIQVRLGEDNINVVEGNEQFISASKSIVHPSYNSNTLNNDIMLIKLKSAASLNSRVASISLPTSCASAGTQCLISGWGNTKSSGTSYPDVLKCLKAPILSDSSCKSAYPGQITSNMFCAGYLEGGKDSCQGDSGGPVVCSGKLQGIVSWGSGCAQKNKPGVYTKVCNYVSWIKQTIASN
Description: (§1) Human Kallikrein Proteins: Recombinant human KLK5 expressed in HEK293 was obtained from SpeedBio (Gaithersburg, MD). Recombinant proenzyme KLK-7 and recombinant proenzyme KLK-14 both expressed in mouse myeloma cells were from R&D Biosystems (Minneapolis, MN). Plasmin and thrombin were from Haematologic Technologies (Essex Junction, VT). Trypsin and Chymotrypsin were bought from Worthington Biochemical Corporation (Lakewood, NJ) and plasma kallikrein was from Prospec (East Brunswick, NJ). Neutrophil Elastase was obtained from Innovative Research (Peary Court, MI). Bovine recombinant enterokinase expressed in E. coli was bought from Sigma (St. Louis, MI). Matriptase expressed in E. coli was obtained from Enzo Life Sciences (Farmingdale, NY). The control inhibitors Nafamostat mesylate was from Sigma (St. Louis, MI) and (2-(2-fluorophenyl)-5,6,7,8-tetrahydro-4H-benzo[4,5]thieno[2,3-d][1,3]oxazin-4-one was from Interbioscreen (Moskow, Russia). […]
(§2) Assays: All assays were performed in 384 well polystyrene plates coated overnight with 0.1% Tween 20 at 4° C. […] The assays were monitored at 37° C. in a multi well plate reader at a wavelength of 405 nm (Molecular Devices, San Jose, CA) for 1 h. […]
(§3) Data analysis: The progress curves of substrate hydrolysis were analyzed by linear regression of the final 20 min of the reaction. […]

Chymotrypsin = Chymotrypsin (Bos taurus, UniProt P00766); experiment: Chromogenic assay, chymotrypsin
Description: (§4) Human Kallikrein Proteins: Recombinant human KLK5 expressed in HEK293 was obtained from SpeedBio (Gaithersburg, MD). Recombinant proenzyme KLK-7 and recombinant proenzyme KLK-14 both expressed in mouse myeloma cells were from R&D Biosystems (Minneapolis, MN). Plasmin and thrombin were from Haematologic Technologies (Essex Junction, VT). Trypsin and Chymotrypsin were bought from Worthington Biochemical Corporation (Lakewood, NJ) and plasma kallikrein was from Prospec (East Brunswick, NJ). Neutrophil Elastase was obtained from Innovative Research (Peary Court, MI). Bovine recombinant enterokinase expressed in E. coli was bought from Sigma (St. Louis, MI). Matriptase expressed in E. coli was obtained from Enzo Life Sciences (Farmingdale, NY). The control inhibitors Nafamostat mesylate was from Sigma (St. Louis, MI) and (2-(2-fluorophenyl)-5,6,7,8-tetrahydro-4H-benzo[4,5]thieno[2,3-d][1,3]oxazin-4-one was from Interbioscreen (Moskow, Russia).
(§5) Substrates: S-2288 (D-Ile-Pro-Arg-pNA), CS-PSA (MeO-Suc-Arg-Pro-Tyr-pNA), S-2266 (H-D-Val-Leu-Arg-pNA) and S-2288 (H-D-Ile-Pro-Arg-pNA) were bought from Diapharma (West Chester, OH). MeOSuccAla-Ala-Pro-Val-pNA was purchased from Sigma (St Louis, MI). The substrates were dissolved in water at 10 mM and were frozen in aliquots at −20° C.
Assays: All assays were performed in 384 well polystyrene plates coated overnight with 0.1% Tween 20 at 4° C. The plates were then washed twice with 100 μL water and dried. For the determination of IC50 values, the inhibitors were diluted in serial dilutions of 1:3 intervals into pure DMSO at 50 fold of the intended final concentrations in the assays. Usually eight inhibitor dilutions and one DMSO control were prepared. The substrates were diluted into water at 2.2-fold the final concentration in the assay mixture. […] The assays were monitored at 37° C. in a multi well plate reader at a wavelength of 405 nm (Molecular Devices, San Jose, CA) for 1 h. […]
as §3

Neutrophil Elastase = target: T2, Neutrophil Elastase (Homo sapiens, UniProt P08246); experiment: Chromogenic assay, neutrophil elastase; conditions: Neutrophil Elastase 0.5 nM; Elastase substrate 1 200 μM; highest conc. of 1.001 100 μM
T2 sequence (P08246 30-267): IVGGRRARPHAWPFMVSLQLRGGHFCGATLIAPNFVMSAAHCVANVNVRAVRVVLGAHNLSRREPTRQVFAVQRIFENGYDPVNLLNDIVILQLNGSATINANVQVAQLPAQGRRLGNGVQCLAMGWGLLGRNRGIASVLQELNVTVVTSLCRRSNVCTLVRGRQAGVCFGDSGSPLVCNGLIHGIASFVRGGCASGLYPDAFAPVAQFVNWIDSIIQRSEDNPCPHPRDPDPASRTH
Description: as §1, §2, §3

Recombinant human KLK5 = target: T3, Recombinant human KLK5 (Homo sapiens, UniProt Q9Y337); experiment: Recombinant KLK5 chromogenic IC50 assay
T3 construct: purchased SpeedBio (Gaithersburg, MD) / SpeedBioSystems; host or cells: HEK293
T3 sequence (Q9Y337 23-293): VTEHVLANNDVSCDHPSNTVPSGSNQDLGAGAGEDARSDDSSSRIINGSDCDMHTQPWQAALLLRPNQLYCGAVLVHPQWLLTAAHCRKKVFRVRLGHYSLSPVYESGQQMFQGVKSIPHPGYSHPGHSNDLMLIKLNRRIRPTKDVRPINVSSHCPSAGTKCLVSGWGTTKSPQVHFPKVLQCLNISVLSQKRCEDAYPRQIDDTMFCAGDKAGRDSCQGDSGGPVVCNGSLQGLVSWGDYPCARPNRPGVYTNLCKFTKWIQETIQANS
Description: as §4, §5
(§6) Assays: All assays were performed in 384 well polystyrene plates coated overnight with 0.1% Tween 20 at 4° C. The plates were then washed twice with 100 μL water and dried. For the determination of IC50 values, the inhibitors were diluted in serial dilutions of 1:3 intervals into pure DMSO at 50 fold of the intended final concentrations in the assays. Usually eight inhibitor dilutions and one DMSO control were prepared. The substrates were diluted into water at 2.2-fold the final concentration in the assay mixture. The wells of the plate were filled with 50 μL of the enzyme diluted in 2× assay buffer (100 mM Tris, 200 mM NaCl, 0.2% PEG, 0.01% Tween, 2 mM EDTA, pH 8.0) at twofold the intended concentration. Then 5 μL DMSO, 2.2 μL inhibitor and 45 μL substrate were added to start the reaction. The assays were monitored at 37° C. in a multi well plate reader at a wavelength of 405 nm (Molecular Devices, San Jose, CA) for 1 h. The tool inhibitor, nafamostat, was used as a control for trypsin, thrombin, KLK-5 and KLK-14 at 10 μM maximal concentration and (2-(2-fluorophenyl)-5,6,7,8-tetrahydro-4H-benzo[4,5]thieno[2,3-d][1,3]oxazin-4-one for KLK-7 at 5 μM.
The table summarizes assay conditions for the individual enzymes:
Data analysis: The progress curves of substrate hydrolysis were analyzed by linear regression of the final 20 min of the reaction. Fit of the dose response of the resulting rates to the following equation yielded the IC50:
[formula] with 1) c: the background rate at the highest inhibitor concentration; 2) d: the rate of the control reaction; 3) IC50: the IC50 of the inhibitor; 4) x: the inhibitor concentration; and 5) b: the slope.
Proteases: KLK5 (SpeedBioSystems); KLK7 (R&Dsystems) was activated with enterokinase (2 hours, 37° C.) prior to assay; Trypsin (Sigma Aldrich); Chymotrypsin (Sigma Aldrich); Factor Xa (Haematologic Technologies); Plasmin (Haematologic Technologies); KLK14 (R&Dsystems) was activated with enterokinase (1 hour, 37° C.) prior to assay; Thrombin (Haematologic Technologies); Neutrophil Elastase (Athens Research&Technology); and KLK1 (Prospec).

Thrombin = target: T4, Thrombin (Homo sapiens, UniProt P00734); experiment: Chromogenic assay, thrombin; conditions: Thrombin 0.5 nM; S-2288 500 μM; highest conc. of 1.001 100 μM
T4 construct: purchased Haematologic Technologies (Essex Junction, VT)
Description: as §1, §2, §3

KLK1 = target: T5, KLK1 (Homo sapiens, UniProt P06870); experiment: Chromogenic assay, KLK1; conditions: KLK1 10 nM; S-2266 200 μM; highest conc. of 1.001 50 μM
T5 construct: purchased Prospec
Experimental: as §5
as §6, with “The tool inhibitor, nafamostat, was used as a control for trypsin, thrombin, KLK-5 and KLK-14 at 10 μM maximal concentration and (2-(2-fluorophenyl)-5,6,7,8-tetrahydro-4H-benzo[4,5]thieno[2,3-d][1,3]oxazin-4-one for KLK-7 at 5 μM.” left out
as §3

Plasmin = target: T6, Plasmin (Homo sapiens, UniProt P00747); experiment: Chromogenic assay, plasmin; conditions: Plasmin 1.0 nM; S-2288 500 μM; highest conc. of 1.001 50 μM
T6 construct: purchased Haematologic Technologies (Essex Junction, VT)
Description: as §1, §2, §3

[1] = Chymotrypsin 0.2 nM, CS-PSA 500 μM, highest conc. of 1.001 50 μM

T6 sequence (P00747 581-810 limits assumed, species assumed): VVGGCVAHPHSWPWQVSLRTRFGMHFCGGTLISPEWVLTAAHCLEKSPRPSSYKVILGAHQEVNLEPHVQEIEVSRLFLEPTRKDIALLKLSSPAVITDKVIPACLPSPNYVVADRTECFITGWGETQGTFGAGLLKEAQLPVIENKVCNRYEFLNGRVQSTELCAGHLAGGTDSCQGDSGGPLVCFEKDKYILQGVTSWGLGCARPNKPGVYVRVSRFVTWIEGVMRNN
T6 sequence (P00747 97-580 partner limits assumed, species assumed): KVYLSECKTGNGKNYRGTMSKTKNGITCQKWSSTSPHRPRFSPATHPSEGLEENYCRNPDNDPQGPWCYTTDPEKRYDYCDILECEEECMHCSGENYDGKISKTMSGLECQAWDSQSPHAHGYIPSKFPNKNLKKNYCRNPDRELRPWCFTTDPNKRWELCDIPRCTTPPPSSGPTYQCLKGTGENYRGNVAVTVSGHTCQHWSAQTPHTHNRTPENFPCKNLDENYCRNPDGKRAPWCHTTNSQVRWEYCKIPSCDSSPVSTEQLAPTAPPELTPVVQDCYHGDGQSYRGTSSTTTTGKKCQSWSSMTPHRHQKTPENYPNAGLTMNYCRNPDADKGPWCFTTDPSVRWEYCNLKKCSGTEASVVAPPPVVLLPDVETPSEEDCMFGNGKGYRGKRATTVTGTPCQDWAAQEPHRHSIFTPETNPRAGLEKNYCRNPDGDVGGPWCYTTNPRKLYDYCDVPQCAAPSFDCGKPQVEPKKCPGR
T5 sequence (P06870 25-262): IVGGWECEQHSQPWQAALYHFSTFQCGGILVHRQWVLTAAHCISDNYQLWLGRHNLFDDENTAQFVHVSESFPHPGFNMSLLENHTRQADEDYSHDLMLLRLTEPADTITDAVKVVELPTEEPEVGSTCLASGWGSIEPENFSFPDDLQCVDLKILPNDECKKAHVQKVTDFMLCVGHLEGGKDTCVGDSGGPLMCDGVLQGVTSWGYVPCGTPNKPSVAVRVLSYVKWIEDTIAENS

SMILES	IC50 (Trypsin)	IC50 (Chymotrypsin; [1])	Inhibition of Chymotrypsin, conclusion in words (Chymotrypsin; conclusion from Table 3)	IC50 (Neutrophil Elastase) [µM]	IC50 (Recombinant human KLK5; Table 2, assay protocol of Example 3, read-out: Recombinant KLK5 enzyme (IC50)) [µM]	IC50 (Recombinant human KLK5; Table 3, KLK5 10 nM, S-2288 500 μM, highest conc. of 1.001 10 μM, read-out: IC50 (μM), KLK5)	Inhibition of KLK5, conclusion in words (Recombinant human KLK5; conclusion from Table 3)	IC50 (Thrombin) [µM]	IC50 (μM), KLK1 (KLK1)	IC50 (Plasmin)	IC50 (μM), Trypsin (Trypsin)	IC50 (μM), Chymotrypsin (Chymotrypsin; [1])	IC50 (μM), KLK5 (Recombinant human KLK5; Table 3, KLK5 10 nM, S-2288 500 μM, highest conc. of 1.001 10 μM)	IC50 (μM), Thrombin (Thrombin)	IC50 (μM), Plasmin (Plasmin)
CS(=O)(=O)c1cc(CO)ccc1-c1nc2cc3c(cc2c(=O)o1)OCCO3 [Compound 1.001, 2-(4-(Hydroxymethyl)-2-(methylsulfonyl)phenyl)-7,8-dihydro-4H-[1,4]dioxino[2′,3′:4,5]benzo[1,2-d][1,3]oxazin-4-one]	1.66 µM and 1.36 µM and 2.2 µM	0.249 µM and 0.317 µM	inhibitor	> 50	0.21	0.176 µM and 0.188 µM	inhibitor	> 10	No inhibition	3.36 µM and 4.2 µM					
CS(=O)(=O)c1cc(CO)ccc1C(=O)Nc1cc2c(cc1C(=O)O)OCCO2 [Compound 408, reference compound]				> 500					No inhibition		No inhibition	No inhibition	No inhibition	No inhibition	No inhibition
